Results published in patent publication US7855076B2, “Use of discoidin domain receptor 1 (DDR1) and agents that affect the DDR1/collagen pathway” (The United States of America as represented by the …, priority 2002, dated 2010).

How the values were obtained:
Type in all cases: cell-based, human
GM-macrophages = experiment: HLA-DR expression on GM-macrophages; settings: pretreatment of 5-day GM-macrophages, 30 minutes
Experimental: The leukocyte-rich preparation was overlaid on Accu-prep in 50 ml tubes and the tubes were centrifuged at 800×g for 20 minutes at room temperature. PBMC fractions were collected, washed once with PBS at room temperature and twice with complete medium at 4° C. and resuspended in the same medium. Monocytes were further purified by using iso-osmotic Percoll gradient. At this stage, the purity of monocytes was higher than 90%. The cells (5×10^5/ml) were allowed to adhere to the surface of 6-well plates. After a 5-hour incubation at 37° C., nonadherent cells were removed and adherent cells were induced to differentiate into macrophages by incubation in the presence of GM-CSF (50 ng/ml) for 5 to 7 days to produce GM-CSF-induced macrophages (GM-macrophages). Five-day GM-macrophages were incubated for additional 2 days with GM-CSF in the presence of an agonistic anti-human DDR1 monoclonal mouse against the extracellular domain of DDR1 (IgM 513). To measure the effect of SB203580, 5-day GM-macrophages were pretreated with SB203580, for 30 minutes.

p38 MAP kinase = experiment: Phosphorylation of p38 MAP kinase in PMA-treated THP-1 cells, Western blotting
Experimental: Parental, mock, DDR1a- or DDR1b-overexpressing THP-1 cells were plated at 5×10^6/ml on uncoated tissue culture plates and stimulated with PMA (10 nM) for 24 hours, and then starved in RMPI 1640 without FCS for 10 hours. Subsequently cells were washed three times with PBS, and then incubated in the presence of 50 μg/ml collagen type I for various times.
Ten million cells were lysed on ice for 20 minutes in a buffer containing 50 mM NaCl, 20 mM Tris-HCl, 50 mM sodium fluoride, 30 mM Na4P2O7, 5 mM EGTA, 3 mM sodium orthovanadate, 1% Triton X-100, 1 mg/ml leupeptin, 1 mM PMSF, 1 mg/ml aprotinin, 1 mg/ml pepstatinA and 100 μM sodium orthovanadate treated with H2O2. A lysis buffer containing 150 mM NaCl, 50 mM HEPES, 1% Triton-X 10% glycerol, 1 mM sodium fluoride, 1 mM EDTA, 2 mM sodium orthovanadate, 1 mg/ml leupeptin, 1 mM PMSF, 1 mg/ml aprotinin, 1 mg/ml pepstatinA and 100 μM sodium orthovanadate treated with H2O2, was also used for immunoprecipitation with anti-Shc Ab. The lysates were spun in a microcentrifuge for 20 minutes and the supernatants were collected. […]
Eluted proteins were analyzed on 8% polyacrylamide gels by SDS-PAGE and transferred electrophoretically to nitrocellulose membranes at 150 mA for 1 hour by a semi-dry system. […] To detect phosphorylated or nonphosphorylated p38 MAP kinase or ATF-2, 20 μl of cell lysates were directly mixed with 20 μl of sample buffer and then analyzed.
Downstream signaling molecules that may play a role in the up-regulation of HLA-DR in collagen-activated PMA-treated DDR1b-overexpressing cells were identified in the following manner. […] Phosphorylation of p38 MAP kinase was first detected 30 minutes after collagen activation of DDR1b-overexpressing cells and the level of phosphorylation increased thereafter. […] Phosphorylation of p38 MAP kinase was not detected in DDR1a-overexpressing cells up to 120 minutes. […] Phosphorylation of other members of the MAP kinase family, ERK1, ERK2, and JNK could not be detected in collagen-activated PMA-treated DDR1b-overexpressing cells. […]

IκBα = experiment: IκB degradation in PMA-treated THP-1 cells, Western blotting; settings: 10 nM PMA
Experimental: Mock-transduced and DDR1b-overexpressing THP-1 cells were plated at 5×10^6cells/ml and treated with 10 nM PMA on collagen-coated plates for varous times. Ten million cells were lysed on ice for 20 minutes in a buffer containing 50 mM NaCl, 20 mM Tris-HCl, 50 mM sodium fluoride, 30 mM Na4P2O7, 5 mM EGTA, 3 mM sodium orthovanadate, 1% Triton X-100; 1 mg/ml leupeptin, 1 mM PMSF, 1 mg/ml aprotinin, 1 mg/ml pepstatin A and 100 μM sodium orthovanadate in […] lysates were spun and the supernatants were collected. Each sample was boiled in double-strength sample buffer for 10 minutes, electrophoresed on 10% polyacrylamide gels by SDS-PAGE, and transferred electrophoretically to nitrocellulose membranes at 150 mA for 1 hour by a semi-dry system. The membranes were incubated with mouse monoclonal anti-IκB antibody followed by sheep anti-mouse IgG coupled with horseradish peroxidase. Peroxidase activity was visualized by the Enhanced Chemiluminescence Detection System (Amersham).

Row | Compound | agonistic antibody-induced increase of HLA-DR-positive cells (GM-macrophages) | phosphorylation of p38 MAP kinase (p38 MAP kinase; DDR1a-overexpressing cells, up to 120 minutes) | time phosphorylation of p38 MAP kinase first detected (p38 MAP kinase; DDR1b-overexpressing cells) [min] | amounts of IκBα (IκBα; DDR1b-overexpressing cells, at 2 and 3 hours) | level of IκBα (IκBα; mock-transduced cells)
1 | C[S+]([O-])c1ccc(-c2nc(-c3ccncc3)c(-c3ccc(F)cc3)[nH]2)cc1 (centres unmarked) [SB203580] | completely inhibited |  |  |  | 
2 | collagen |  | not detected | 30 | decreased | unchanged
